The text below walks through data of PMC11858884 (Plants, 2025).

What is called IC50 is the point on the concentration scale where inhibition reaches its midpoint.

For assay [1], the target named is mushroom tyrosinase. As to the kind of experiment: Tyrosinase inhibition assay (spectrophotometric, L-tyrosine, dopachrome at 495 nm). It is filed as biochemical, Agaricus bisporus. Particulars: mushroom tyrosinase 100 U/mL, 1 mM L-tyrosine, 37 °C; mean of three experiments; read-out: Tyrosinase inhibitory activity IC50±SD. How it is done: The tyrosinase inhibitory activity was evaluated using a method previously described with slight modification (for details, see the Supporting Materials). […]
Tyrosinase inhibition assay
30 microliters of the sample (final concentrations of 50, 100, 200 µM) and 50 µL of 100 U/mL mushroom tyrosinase were treated in 96-well plates and incubated at 37 ◦C for 15 min. Subsequently, 50 µL of 1 mM L-tyrosine was added and then reacted at 37 ◦C for 15 min. The amount of dopachrome formed was measured at 495 nm using Thermo Scientific™ Multiskan SkyHig h Microplate Spectrophotometer. Each sample has been tested in triplicate and the tyrosinase inhibitory activity was calculated using the following equation:
Tyrosinase inhibitory activity (I%) = [1 − (S − S0)/ (C − C0)] × 100 where S is the absorbance of the sample, tyrosinase, and L-tyrosine; S0 is the absorbance of the sample and L-tyrosine; C is the absorbance of tyrosinase and L-tyrosine, and C0 is the absorbance of L-tyrosine (negative […]
control). […] IC50 values were calculated through a linear regression and expressed as means ± SD (standard deviation). They were considered statistically significant with values of p < 0.05. […]

Assay [2] has as its target T1, AchE (from Electrophorus electricus) (Electrophorus electricus, UniProt O42275).
T1 construct: purchased Sigma-Aldrich (Milan, Italy)
As to the kind of experiment: biochemical. How it is done:
The acetylcholinesterase (AchE) inhibitory activity was evaluated using a method described by Balkrishna et al. with slight modification (for details, see the Supporting Materials). […]
[…] IC50 values were calculated through a linear regression and expressed as means ± SD (standard deviation). They were considered statistically significant with values of p < 0.05.
Acetylcholinesterase inhibition assay
The assay mechanism forecasts that the AchE enzyme hydrolyses the substrate acetylthiocholine, resulting in the product “thiocholine” which reacts with Ellman’s reagent (5,5’-dithio-bis-(2-nitrobenzoic acid), DTNB) to produce 2-nitrobenzoate-5-mercaptothiocholine and 5-thio-2-nitrobenzoate (TNB); the latter can be detected at 415 nm. 150 µL of phosphate buffer (0.1 M), 20 microliters of the sample (final concentrations of 100, 200, […]
300 µM) and 20 µL of 0.2 U/mL AchE (from Electrophorus electricus) were treated in 96-well plates and […]

The test system of assay [3] is mushroom tyrosinase. The assay is described as follows: Tyrosinase inhibition kinetics study (Lineweaver-Burk plot). The class given is biochemical, Agaricus bisporus. How it is done:
Kinetic analysis of the tyrosinase enzyme for compound 13 was carried out using the Lineweaver–Burk double reciprocal plot. […] At 37 °C, the enzyme inhibition reaction was recorded by measuring the absorbance of the microplate reader at 495 nm for 0, 3, 6, 9, 12, and 15 min.

The mark [4] stands for this setting: 0.2 U/mL AchE, acetylthiocholine, 37 °C, mean of three experiments, read-out: AchE inhibitory activity IC50±SD.

Read-outs that look alike come from different tables or passages of the source.

T1 sequence (O42275 24-633): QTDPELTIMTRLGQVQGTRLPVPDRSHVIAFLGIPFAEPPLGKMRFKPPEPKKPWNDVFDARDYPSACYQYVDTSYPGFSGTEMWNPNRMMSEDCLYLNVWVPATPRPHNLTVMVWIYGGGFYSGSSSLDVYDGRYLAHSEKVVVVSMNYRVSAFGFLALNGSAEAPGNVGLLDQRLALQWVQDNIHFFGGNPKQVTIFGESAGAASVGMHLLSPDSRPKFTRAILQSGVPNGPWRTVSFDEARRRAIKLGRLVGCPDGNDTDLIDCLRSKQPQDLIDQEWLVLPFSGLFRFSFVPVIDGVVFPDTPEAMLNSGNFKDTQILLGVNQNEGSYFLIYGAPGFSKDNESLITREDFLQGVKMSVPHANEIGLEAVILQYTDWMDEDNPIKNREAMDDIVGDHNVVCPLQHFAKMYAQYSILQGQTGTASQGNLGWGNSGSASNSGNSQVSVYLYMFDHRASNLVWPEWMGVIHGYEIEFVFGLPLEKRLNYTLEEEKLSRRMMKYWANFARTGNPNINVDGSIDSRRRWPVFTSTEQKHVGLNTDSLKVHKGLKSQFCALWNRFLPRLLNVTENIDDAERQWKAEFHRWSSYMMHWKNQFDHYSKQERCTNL

As to `COc1cc2ccc(=O)oc2cc1O[C@@H]1O[C@H](CO)[C@@H](O)[C@H](O)[C@H]1O` [Compound 1, Scopolin], the values for the IC50 in assay [1] and in assay [2] (setting [4]) were 46.8 ± 6.34 µM and 231 µM, respectively.
For `O=C(O)C[C@@H]1CCC(=O)[C@@H]1C/C=C\CCO[C@@H]1O[C@H](CO)[C@@H](O)[C@H](O)[C@H]1O` [Compound 2, Tuberonic acid glucoside], the IC50 in assay [1] is 192 ± 7.92 µM; in assay [2] (setting [4]), 343 ± 10 µM.
For `OC[C@H]1O[C@@H](OCCc2ccccc2)[C@H](O)[C@@H](O)[C@@H]1O` [Compound 3, Phenylethyl ꞵ-D-glucopyranoside], the results for the concentration for half-maximal inhibition (IC50) in assay [1] and in assay [2] (setting [4]) were 196 ± 7.01 µM and 281 ± 10.1 µM, respectively.
For the compound `CCC(C)O[C@@H]1O[C@H](CO)[C@@H](O)[C@H](O)[C@H]1O` (stereo partly drawn) [Compound 4, 1-Methylpropyl ꞵ-D-glucopyranoside], the IC50 in assay [1] amounted to 412 ± 8.12 µM; in assay [2] (setting [4]), 352 ± 9.03 µM.
In the case of `C[C@@H]1O[C@@H](OC[C@H]2O[C@@H](Oc3cc(O)c4c(=O)cc(-c5ccc(O)cc5)oc4c3)[C@H](O)[C@@H](O)[C@@H]2O)[C@H](O)[C@H](O)[C@H]1O` [Compound 6, Apigenin 7-O-rutinoside], the concentration for half-maximal inhibition (IC50) was determined as 32.1 µM in assay [1] and 182 µM in assay [2] (setting [4]).
Take `COc1ccc(-c2oc3cc(O[C@@H]4O[C@H](CO)[C@@H](O)[C@H](O)[C@H]4O)c(OC)c(O)c3c(=O)c2O)cc1` [Compound 7, Camaraside]: the concentration for half-maximal inhibition (IC50) in assay [1] is 87.4 ± 5.67 µM; in assay [2] (setting [4]), 232 ± 9.98 µM.
Consider `C=C1C(=O)O[C@@H]2/C=C(/C)[C@@H](O)C[C@@H](O)C(=C)C[C@H](OC(=O)/C(C)=C/C)[C@@H]12` [Compound 8, 8-Tigloylhydroxyisonobilin], for which the IC50 in assay [1] turned out to be 184 ± 7.12 µM; in assay [2] (setting [4]), 225 µM.
The compound `O=c1cc(-c2ccc(O)cc2)oc2cc(O)cc(O)c12` [Compound 9, Apigenin] returned a 50% inhibitory concentration (IC50) in assay [2] of 362 ± 10.1 µM.
Regarding `C=C1C(=O)O[C@@H]2/C=C(/C)[C@@H](O)C[C@@H](O)C(=C)C[C@H](OC(=O)/C(C)=C\C)[C@@H]12` [Compound 10, Hydroxyisonobilin], the concentration for half-maximal inhibition (IC50) in assay [1] is 188 ± 6.63 µM; in assay [2] (setting [4]), 268 ± 12.1 µM.
In the case of `C=C1C(=O)O[C@@H]2/C=C(/C)[C@H](O)C[C@@H](O)C(=C)C[C@H](OC(=O)/C(C)=C\C)[C@@H]12` [Compound 11, 3-Epi-hydroxyisonobilin], the half-inhibitory concentration (IC50) in assay [1] turned out to be 286 ± 8.28 µM; in assay [2] (setting [4]) it was 263 ± 11.2 µM.
Taken in the same sequence, the figures for `C=C1C[C@H](OC(=O)/C(C)=C\C)[C@H]2C(=C)C(=O)O[C@@H]2/C=C(/C)[C@@H](O)CC1=O` [Compound 12, Nobilinon A] were 314 ± 8.09 µM and 244 ± 9.11 µM.
On to `C=C1CC(OC(=O)C(C)=CC)C2C(C=C(C)C(O)CC1O)OC(=O)C2C` (stereo not shown) [Compound 13, 11,13-Dihydro-8-tigloylhydroxyisonobilin], for which the IC50 in assay [1] is 146 µM; in assay [2] (setting [4]) it was 245 ± 9.16 µM. For the same compound, in assay [3] (Lineweaver-Burk double reciprocal plot), the “Type of tyrosinase inhibition” value is “uncompetitive”. The “Vmax in the presence of the inhibitor” value in assay [3] (inhibitor 53.52 µg/mL, L-tyrosine 1-0.125 mM, control Vmax 42.02 µM/min) amounted to 27.25 µM/min.
For the compound `C=C1C(=O)O[C@@H]2/C=C(/C)[C@@H](O)C/C=C(\C)C[C@H](OC(=O)/C(C)=C\C)[C@@H]12` [Compound 14, Nobilin], the 50% inhibitory concentration (IC50) in assay [1] stood at 297 ± 7.23 µM; in assay [2] (read-out: AchE inhibitory activity IC50±SD), 304 µM.
On to `COc1ccc(-c2cc(=O)c3c(O)c(OC)c(O)cc3o2)cc1` [Compound 15, 5,7-Dihydroxy-6-methoxy-2-(4-methoxyphenyl)-4H-1-benzopyran-4-one], for which the half-maximal inhibitory concentration (IC50) was 212 ± 6.76 µM in assay [1] and 190 µM in assay [2] (setting [4]).
Turning to “ꞵ-D-Glucopyranose, 1-[(2 Z)-2 methyl-2-butenoate] [Compound 5]”, the IC50 in assay [1] came out at 299 ± 7.86 µM; in assay [2] (setting [4]) it was 388 ± 11.1 µM.
